Experimental data as given in patent US20060228297A1, “Thorium-227 for use in radiotherapy of soft tissue disease” (priority 2003, published 2006).
Like-named read-outs stand apart in the source and are kept apart here.

Experiments:
[1] = system: CD20 antigen expressing human lymphoma cell line DAUDI; assay: Binding of ^227Th labeled antibody to DAUDI human lymphoma cells; conditions: for Mean cpm bound per cell pellet, Unblocked: 2×10^7 DAUDI cells, two hours at 8° C., mean of a duplicate; for Mean cpm bound per cell pellet, Blocked: cells pre-saturated with 40 μg unlabeled rituximab; for Thorium-227 atoms bound per cell, Blocked: cells pre-saturated with unlabeled rituximab
Procedure: DAUDI cells were purchased from European Collection of Cell Cultures (ECACC), Salisbury, UK, and grown according to supplier's instructions using culture medium and supplement from Gibco (Paisley, Scotland, UK) and using 500 ml culture flasks (Cell Star, Greiner Bio-One GmbH, Frickenhausen, Germany). DAUDI cells (2×10^7 cells in 0.7 ml PBS) were used to study binding of ^227Th labeled rituximab in vitro. As control of nonspecific binding, DAUDI cells pre-saturated (blocked) with 40 μg unlabeled rituximab for 15 minutes were used. To the test tubes (Polystyrene culture test tubes, 12×75 mm, Elkay, Shrewsbury, Mass., USA) were added ^227Th labeled rituximab corresponding to 1.3, 5.3, or 26 μg/ml respectively. The experiment was performed in duplicate at each concentration level using unblocked and blocked cells. Incubation was performed for two hours at 8° C. After incubation, cell suspensions were counted for radioactivity (Crystal II Multidetector, Packard Instrument Company Inc. Downers Grove, Ill., USA) and the cells washed with 2 ml of 1% BSA (Albumin, Bovine Fraction V, Sigma Chemical Co., St. Louis, Mo., USA) in PBS (Gibco, Paisley, Scotland, UK) and centrifuged (Centrifuge 5810 R, Eppendorf AG, Hamburg, Germany) at 200 rpm for 5 minutes. The washing/centrifugation was repeated twice. Thereafter the cell pellets were counted for radioactivity. The results (each the mean of a duplicate) are set out in Table 3 below.

adult dogs = conditions: cited from earlier work; for % of baseline at nadir (neutrophils) / Days to nadir (neutrophils): dogs
[2] = 13 kBq/kg single intravenous injection
[3] = 40 kBq/kg single intravenous injection
[4] = 120 kBq/kg single intravenous injection
[5] = 350 kBq/kg single intravenous injection

**Q.** With ^227Th-labeled rituximab as the compound, how does the “Thorium-227 atoms bound per cell, Net specific bound” value ([1]; RIC conc. 1.3 μg/ml added) read?
**A.** 1.7

**Q.** And the “Thorium-227 atoms bound per cell, Unblocked” value ([1]; RIC conc. 1.3 μg/ml added)?
**A.** 1.9

**Q.** And the “Mean cpm bound per cell pellet, Unblocked” value ([1]; RIC conc. 1.3 μg/ml added)?
**A.** 226 cpm

**Q.** What about the “Mean cpm bound per cell pellet, Blocked” value ([1]; RIC conc. 1.3 μg/ml added) of the same compound?
**A.** 25 cpm

**Q.** What about the “Thorium-227 atoms bound per cell, Blocked” value ([1]; RIC conc. 1.3 μg/ml added) of the same compound?
**A.** 0.2

**Q.** What about the “Thorium-227 atoms bound per cell, Net specific bound” value ([1]; RIC conc. 5.3 μg/ml added) of the same compound?
**A.** 9.3

**Q.** What about the “Thorium-227 atoms bound per cell, Unblocked” value ([1]; RIC conc. 5.3 μg/ml added) of the same compound?
**A.** 10.1

**Q.** What about the “Mean cpm bound per cell pellet, Unblocked” value ([1]; RIC conc. 5.3 μg/ml added) of the same compound?
**A.** 1186 cpm

**Q.** And the “Mean cpm bound per cell pellet, Blocked” value ([1]; RIC conc. 5.3 μg/ml added)?
**A.** 97 cpm

**Q.** And the “Thorium-227 atoms bound per cell, Blocked” value ([1]; RIC conc. 5.3 μg/ml added)?
**A.** 0.8

**Q.** And the “Thorium-227 atoms bound per cell, Net specific bound” value ([1]; RIC conc. 26.0 μg/ml added)?
**A.** 32.5

**Q.** And the “Thorium-227 atoms bound per cell, Unblocked” value ([1]; RIC conc. 26.0 μg/ml added)?
**A.** 35.2

**Q.** What about the “Mean cpm bound per cell pellet, Unblocked” value ([1]; RIC conc. 26.0 μg/ml added) of the same compound?
**A.** 4141 cpm

**Q.** What about the “Mean cpm bound per cell pellet, Blocked” value ([1]; RIC conc. 26.0 μg/ml added) of the same compound?
**A.** 315 cpm

**Q.** What about the “Thorium-227 atoms bound per cell, Blocked” value ([1]; RIC conc. 26.0 μg/ml added) of the same compound?
**A.** 2.7

**Q.** And the “RIC bound to the unblocked vs. the blocked cells” value ([1]; on average over the three concentrations)?
**A.** about 12 times

**Q.** What about the “Specific binding to the DAUDI cells” value ([1]; unblocked vs. blocked cells) of the same compound?
**A.** did bind specifically

**Q.** What does the source list for `[224Ra]` [^224Ra, radium-224]?
**A.** Death caused by haematological dyscrasia resulting from bone marrow destruction, number of dogs (adult dogs; 350 kBq/kg): 3 dogs out of 8; % of baseline at nadir (neutrophils) (adult dogs; [2]): 60%; Days to nadir (neutrophils) (adult dogs; [2]): 30 days; % of baseline at nadir (neutrophils) (adult dogs; [3]): 70%; Days to nadir (neutrophils) (adult dogs; [3]): 10 days; % of baseline at nadir (neutrophils) (adult dogs; [4]): 20%; Days to nadir (neutrophils) (adult dogs; [4]): 10 days; % of baseline at nadir (neutrophils) (adult dogs; [5]): 4%; Days to nadir (neutrophils) (adult dogs; [5]): 10 days
